The values that follow come from a melting point compilation (Tetko et al.; mined from patent text by program, amines drawn as free bases though some values may be those of a salt).

Structures are written as SMILES.

In turn, `O=C1c2ccc(Br)cc2OCC1n1ccnc1` (stereo not drawn) showed a melting point of 201 to 203 °C.

Molecule `Cc1cccc(COc2ccc(CC(NC(=O)c3cn4ccc(-c5ccc(Cl)cc5)cc4n3)C(=O)O)cc2)c1` (stereo not drawn) returned a melting point of 245 to 246 °C.

As for `CCCC1CCC(c2ccc(-c3cc(F)c(C(F)(F)Oc4cc(F)c(C(F)(F)F)c(F)c4)c(F)c3)c(F)c2)CC1` (stereo not drawn), the melting point is 86 °C.

With `COc1ccc(/C=C/S(=O)(=O)CS(=O)(=O)/C=C/c2ccc(OC)c([N+](=O)[O-])c2)cc1[N+](=O)[O-]`, the melting point lay within 263 to 265 °C.

`N#Cc1cnc2cc(-c3csc(CN4CCOCC4)c3)ccc2c1Nc1ccc(Cl)cc1Cl` gave a melting point of 203 to 205 °C.

With `NC(=O)NN=Cc1ccc(Oc2cc(Cl)ccn2)cc1`, the melting point lay in the range of 231 to 233 °C.

`CN[C@H]1CCN(c2c(-c3csc(C)n3)c(C)c(C#N)c3nc(C(=O)N(C)C)oc23)C1`: the melting point lay within 138 to 140 °C.

In the case of `CC(=O)NCC1CN(c2cc(F)c(N3CCN(C(=O)COC(=O)n4ccnc4)CC3)c(F)c2)C(=O)O1` (stereo not drawn), the melting point is 199 to 200 °C.

Molecule `Cc1cc(C2OC(=O)NC2=O)c(C)o1` (stereo not drawn) showed a melting point of 144 to 145 °C.

`Nc1ccc2ccc(Oc3ccc(Cl)c(Cl)c3)nc2n1` returned a melting point of 206 °C.

Consider `COc1ccccc1-c1ccc(C[C@H](NC(=O)c2c(Cl)cccc2Cl)C(=O)O)cc1Cl`, for which the melting point was determined as 131 °C.

For the molecule `O=C(O)c1ccccc1-c1ccc(-c2ccc(C(F)(F)F)cc2)o1`, the melting point fell in the range of 182 to 183 °C.

`CCCc1nnc(Cc2cn(-c3ccccc3)nc2OCc2ccc(OCc3nc(-c4ccco4)oc3C)c(OC)c2)o1` returned a melting point of 102 to 103 °C.

The molecule `N#Cc1nc2c(nc1N)CCCC2` had a melting point of 200 to 202 °C.

With `CCOC(=O)c1cc2c(cn1)[nH]c1ccc(N)cc12`, the melting point was 226 to 228 °C.

With `CN(C)C(=O)c1cccnc1S(N)(=O)=O`, the melting point lay in the range of 188 to 191 °C.

For `Cc1cc2c(O)cccc2[nH]1`, the melting point is 168 to 170 °C.

`COc1nc(NC(=S)NS(=O)(=O)c2cccnc2)nc(OC)n1` displayed a melting point of 158 to 160 °C.

Molecule `Cn1ncnc1COc1nc2c(-c3cc(F)ccc3F)nncn2c1-c1ccccc1` returned a melting point of 200 °C.

As for `CNC(=O)c1cccc(NC(=O)Cc2ccccc2Cl)c1`, the melting point lay in the range of 211 to 212 °C.

In turn, `c1ccc2c(c1)OCCO2` gave a melting point of 117 to 118 °C.

In turn, `C[Si](C)(C)OC(C(N)=O)(C(N)=O)c1ccc(Cl)c(Cl)c1` registered a melting point of 156 °C.

On to `CCn1nc(C)c2c(Cl)cc(-c3ccccc3)nc21`, for which the melting point lay in the range of 101 to 103 °C.

As to `CC(=Cc1ccccc1)c1ccc2c(c1)C(C)(C)CCN2C`, the melting point fell in the range of 69 to 71 °C.

On to `COc1ccc(C=C(C=O)C(C=O)=Cc2ccc(OC)c(OC)c2)cc1OC`, for which the melting point was 149 to 150 °C.

`Cc1cn(C)c(C)c1-c1ccnc(Nc2ccc(F)cc2)n1` showed a melting point of 124 to 128 °C.

Regarding `CCOC(=O)CCSc1nnsc1-c1ccc(C)cc1`, the melting point was 68.5 to 69.5 °C.

Take `O[C@@H]1CN=C(c2ccoc2)O[C@H]1c1ccccc1` (racemic): the melting point turned out to be 160 °C.

With `COc1cccc2c1C(=O)C(c1c(Cl)cccc1Cl)C2=O` (stereo not drawn), the melting point lay in the range of 163 to 165 °C.

`CO[C@H]1O[C@@H](C)[C@@H]2[C@H](/C=C/[C@H]3CCC[C@H](C)N3C(=O)OC(C)(C)C)[C@H]3CCCC[C@@H]3C[C@H]12` came in with a melting point of 90.5 to 92.5 °C.

Molecule `CN(C)S(=O)(=O)c1nnc(N)s1` came in with a melting point of 188 to 190 °C.

`CC(=O)N(O)Cc1ccc(C(O)C#Cc2ccsc2)cc1` (stereo not drawn) displayed a melting point of 126 to 129 °C.

Molecule `COc1ccc(C=C2c3ccccc3C(=O)c3ccccc32)cc1OCC(=O)N1CCC(CO[N+](=O)[O-])CC1` returned a melting point of 63 to 65 °C.

For `CNC(=S)NS(=O)(=O)c1cc(CCNC(=O)c2cnc3ccccc3c2)ccc1OCCOc1ccccc1`, the melting point lay in the range of 89 to 91 °C.

`CCc1cccc(CC(=O)O)c1OCCCc1cn(-c2ncc(Cl)cc2Cl)nc1C(C)C` came in with a melting point of 93 to 95 °C.

`CCNc1nc2cc(Cc3c(C)nc4cc(C)ccn34)ccc2o1` gave a melting point of 209 to 211 °C.

Turning to `CCCCCCCCCOC(=O)Oc1ccc(-c2ccc(C#N)cc2)cc1`, the melting point was in the range of 53 to 53.1 °C.

Regarding `NC(=O)Nc1ccc2c(c1)C(CN1CCC(c3ccc(F)cc3)CC1)CC2` (stereo not drawn), the melting point is 172 to 174 °C.

In turn, `CC1=C(C#N)C(c2cccc([N+](=O)[O-])c2)n2ccnc2N1` (stereo not drawn) had a melting point of 278 to 280 °C.

Consider `Nc1nc(N)nc(C2(c3ccccc3)CCCCC2)n1`, for which the melting point fell in the range of 153 to 155 °C.

For the molecule `Cc1noc(NS(=O)(=O)c2ccccc2-c2ccc(-c3ncco3)cc2CN2C(=O)C(F)(F)c3ccccc32)c1C`, the melting point fell in the range of 112 to 120 °C.

The molecule `CCCCCCCOc1ccc(-c2ccc(OCc3ccccc3)c(F)c2)cc1F` came in with a melting point of 98.7 to 100 °C.

`OCC1OC(OCc2ccccc2)C(O)C1O` (stereo not drawn) came in with a melting point of 95 °C.

With `O=C1CCCCCCCCCCCCCCCCCCCCCCC1O` (stereo not drawn), the melting point is 39 to 40 °C.

`COc1c(F)cc2c(O)c(C(=O)NCc3ccc(Cl)cc3)cnc2c1F` gave a melting point of 217 to 219 °C.

Consider `O=C(O)CCSC(C(=O)O)c1ccccc1CCCCCCCCc1ccccc1` (stereo not drawn), for which the melting point lay in the range of 86 to 87 °C.

Turning to `O=C(O)[C@H](Cc1ccc(CC(F)(F)C(F)(F)F)cc1)[C@@H](O)c1cccc(Cl)c1` (racemic), the melting point lay in the range of 150 to 151 °C.

Turning to `Cc1c(CC2CCc3c(c4ccccc4n3C)C2=O)ncn1C(c1ccccc1)(c1ccccc1)c1ccccc1` (stereo not drawn), the melting point fell in the range of 193 to 195 °C.

Regarding `O=C/C=C/c1c(Cl)cc(Cl)cc1OCc1ccccc1`, the melting point was in the range of 109 to 112 °C.

Molecule `CC(=O)OC1CN(c2c(F)cc3c(=O)c(C(=O)O)cn(C4CC4)c3c2F)C1` had a melting point of 259 to 262 °C.

On to `CC(C)CCCCNC(=O)n1sc2ccccc2c1=O`, for which the melting point is 49 to 51 °C.

The molecule `COC(=O)c1ccc(C(=O)NS(=O)(=O)c2ccc(C(=O)NCCCc3ccccc3)cc2)cn1` displayed a melting point of 240 to 242 °C.

For `O=Cc1c(N2CCCC2)n(C2OC(CO)C(O)C2O)c2cc(Cl)c(Cl)cc12` (stereo not drawn), the melting point lay in the range of 131 to 134 °C.

For `CC(CC(F)(F)C(F)(F)C(F)(F)C(F)(F)CC(C)C(=O)O)C(=O)O` (stereo not drawn), the melting point is 166 to 168 °C.

For `COc1ccc2c(C=O)c(OCc3ccccc3)ccc2c1Br`, the melting point lay within 214 to 220 °C.

The molecule `O=CNc1nc(OCc2ccccc2)ncc1F` displayed a melting point of 153 to 157 °C.

In turn, `Cc1ccc2c(c1Cl)S(=O)(=O)N=CN2C1CC1` had a melting point of 218 to 223 °C.

In the case of `CN(C)CCC(Oc1ccc(N)cc1)c1ccccc1` (stereo not drawn), the melting point was in the range of 82 to 84 °C.

Molecule `O=C(NN1CCCCC1)C1=NN(c2ccc(Cl)cc2Cl)C(c2ccccc2)C1` (stereo not drawn) gave a melting point of 160 to 164 °C.

On to `CC(C)(C)C(=O)Nc1ccncc1`, for which the melting point is 137 to 140 °C.

Molecule `O=C(NNS(=O)(=O)c1ccc([N+](=O)[O-])cc1)c1ccccc1` yielded a melting point of 193 to 195 °C.

Molecule `Cn1nc(-c2ccccc2O)c2sccc21` displayed a melting point of 112 to 113 °C.

Take `Cc1c(C)c2c(c(C)c1NS(=O)(=O)CCCC(F)(F)F)C(c1ccc(C(C)C)cc1)CO2` (stereo not drawn): the melting point fell in the range of 149 to 150 °C.

`COc1ccc(C2=NNC(=O)CC2)cc1CO` showed a melting point of 207 to 208 °C.

Take `CCCCCC(=O)OCc1nccc(O)n1`: the melting point came out at 78 °C.

In turn, `CC(=O)OC1CCC2(C)C(=CCC3C2CCC2(C)C(C(C)CCCC(C)(C)C)CCC32)C1` (stereo not drawn) gave a melting point of 152 to 153 °C.

The molecule `CCOC(=O)c1cccc(O)c1O` came in with a melting point of 66 to 67.2 °C.

`Cc1ccc(C2=C(c3ccc(S(C)(=O)=O)cc3)C(=O)N(C)C2)cc1`: the melting point is 183 to 185 °C.

As to `CCc1c(OC)nc2nc(C#N)cn2c1C`, the melting point was in the range of 166 to 168 °C.

`CC(=O)NC(COC(F)F)C(=O)NCc1ccccc1` (stereo not drawn) returned a melting point of 173 °C.

Consider `O=C1OC(=O)c2nc(C(Cl)(Cl)Cl)ccc21`, for which the melting point was in the range of 126 to 127 °C.

In turn, `OC1(c2cccc(-c3ccccc3)c2)CN2CCC1CC2` (stereo not drawn) registered a melting point of 165 to 166 °C.

`CC(C)(C)CN1C(=O)C(=O)N(c2ccc(F)cc2F)C1=S` came in with a melting point of 156 to 157 °C.

As for `CCC(O)(CC(=O)OC(C)(C)C)c1cc2n(c(=O)c1COC(C)=O)Cc1cc3ccccc3nc1-2` (stereo not drawn), the melting point lay in the range of 195 to 196 °C.

For `CS(=O)(=O)c1ccc(C(CC2CCCC2)C(=O)Nc2ccccn2)cc1C(F)(F)F` (stereo not drawn), the melting point was 86 to 89 °C.

In turn, `CC(C)Nc1cccnc1N1CCN(C(=O)c2ccc(C(=O)N3CCN(CCCO)CC3)cc2)CC1` came in with a melting point of 129 °C.

`Oc1ccc2c(ccc3ccccc32)c1-c1c(O)ccc2c1ccc1ccccc12` came in with a melting point of 244 to 245 °C.

Regarding `CC(C)(C)c1cc(SCN2CCN(CSc3cc(C(C)(C)C)c(O)c(C(C)(C)C)c3)C2=O)cc(C(C)(C)C)c1O`, the melting point lay within 173 to 176 °C.

In turn, `N#CC=C1CCN(c2ccc(N3C[C@H](CNC(=O)C(Cl)(Cl)Cl)OC3=O)cc2F)CC1` returned a melting point of 142 to 144 °C.

Regarding `Fc1ccc(-c2cc(SC(F)(F)C(F)F)[nH]c2-c2ccc(F)cc2)cc1`, the melting point was 70.5 to 71 °C.

For the molecule `CC1CCC(NC(=O)NS(=O)(=O)c2ccc(CCNC(=O)N3C(=O)c4ccccc4C3C)cc2)CC1` (stereo not drawn), the melting point is 212 to 214 °C.

With `CCN(CC)C(=O)c1cc([N+](=O)[O-])cnc1CBr`, the melting point was 62 to 64 °C.

`CCOC1=NS(=O)(=O)N(C)C(Cl)=N1` displayed a melting point of 75 to 80 °C.

As for `CC(=O)C(=O)N[C@H](CO[N+](=O)[O-])Cc1ccccc1`, the melting point is 72 to 75 °C.

`CCCCCCCCCCCCCCOc1ccc(CC(=O)Nc2ccc(-n3ccnc3C)cc2)cc1`: the melting point is 106 to 109 °C.

As for `CCOC(=O)[C@H]1CCCN2CCc3c([nH]c4ccc(Cl)cc34)[C@@H]12` (racemic), the melting point lay within 88 to 90 °C.

`Oc1cc2onc(-c3ccccc3F)c2cc1Cl` had a melting point of 180 to 182 °C.

In the case of `NC(=O)c1ccc(NC2CCN(Cc3ccccc3)C2)cc1` (stereo not drawn), the melting point lay within 160 to 162 °C.

Usually melting point stands for the temperature of the solid-liquid transition.
